In patent publication US20100290997A1, “Imaging Agents and Methods” (priority 2006, published 2010):
Where a SMILES comes first, the peptide text is derived from it.

Legend:
[1] = Fluorescence emission spectra; type: physicochemical; settings: methanol solution; for emission wavelength (maximum): excited at 766 nm
Procedure: Analytical high-performance liquid chromatography (HPLC) was carried out on an Agilent 1100 system (Wilmington, Del.) equipped with a Vydac peptide and protein analytic C-18 column (Anaheim, Calif.). Sample was eluted with water and acetonitrile containing 0.1% TFA varying from 10% to 80% over 30 min. Fluorescence intensity was measured by Spex Fluorolog spectrofluorimeter (Jobin Yvon Inc, Edison, N.J.).
The fluorescence emission spectra of the synthesized contrast agent was obtained using a Spex Fluorolog spectrofluorimeter (Horiba Yvon Jobin, N.J.).

cathepsin B = molecular target: T1, cathepsin B (Homo sapiens, UniProt P07858); assay: Inhibition of biodegradation of L-PG-NIR813 in presence of CB inhibitor II; type: biochemical; settings: 0.2 unit/mL cathepsin B, 10 μM eq. NIR813
T1 construct: purchased Sigma-Aldrich (St. Louis, Mo.)
Procedure: L-PG-NIR813 with different loading 8.3% and 10%, CB and CB inhibitor II were dissolved in assay buffer respectively. The reaction mixture (100 μL) in each well was composed of 10 μM L-PG-NIR813 probe and 0.2 units/mL CB. The CB inhibitor II was serially diluted in the assay buffer to obtain concentrations ranging from 240 μM to 77 nM. The microwell assay plate was incubated at 37° C. for 24 hr. At predetermined time intervals, the inhibition of biodegradation was examined using Li-Cor Odyssey imager.

[2] = Determination of relaxivity (T1, T2) at 4.7 Tesla; type: physicochemical; settings: 4.7T MRI experimental scanner
Procedure: (§1) Solutions of PG-Benz-DTPA-Gd-IR783 were prepared in water at gadolinium concentrations of 0.005, 0.01, 0.02, 0.04, 0.08, and 0.16 mM. Spin lattice (T1) and spin-spin (T2) relaxivities were measured at 4.7 Tesla on 4.7T Bruker Biospec 47/40USR (City, State) using inversion recovery and mutiecho T2-weight pulse sequences. Relaxivities (R1 or R2 in mM^−1s^−1) were obtained from linear least square determination of the slopes of 1/T1 vs [Gd] or 1/T2 vs [Gd] plots.
as §1, with “PG-DTPA-Gd-NIR813” for “PG-Benz-DTPA-Gd-IR783”, “(Bruker Biospin Corp., Billerica, Mass.)” for “47/40USR (City, State)”

Row | Stokes shift [1] | excitation wavelength [1] | emission wavelength (maximum) [1] | T1 relaxivity (r1) [2] | Compound | inhibition of PG-NIR813 degradation by CB (cathepsin B)
1 | 47 nm | 766 nm | 813 nm |  | CC1(C)C(/C=C/C2=C(Sc3ccc(C(=O)NCCCCCN)cc3)C(=C/C=C3/N(CCCCS(=O)(=O)O)c4ccccc4C3(C)C)/CCC2)=[N+](CCCCS(=O)(=O)O)c2ccccc21 [NIR813, IR-783-S-Ph-CONH(CH2)5NH2] | 
2 |  |  |  |  | CC(=O)N[C@@H](CC(C)C)C(=O)N[C@H](C(=O)N[C@H](C=O)CCCCN)C(C)C [CB inhibitor, Ac-LVK-CHO] (Ac-Leu-Val-Lys-aldehyde) | inhibited by CB inhibitor in a dose-dependent manner
3 | 32 nm | 766 nm | 798 nm |  | CC1(C)C(=CC=C2CCCC(C=CC3=[N+](CCCCS(=O)(=O)[O-])c4ccccc4C3(C)C)=C2Cl)N(CCCCS(=O)(=O)[O-])c2ccccc21.[Na+] [IR783] | 
4 |  |  |  | 4.8 mmol⁻¹ s⁻¹ | O=C([O-])CN(CCN(CC(=O)[O-])CC(=O)O)CCN(CC(=O)[O-])CC(=O)O.[Gd+3] [DTPA-Gd] | 
